Data: patent publication US11110079B2, “Mebendazole polymorph for treatment and prevention of tumors” (THE JOHNS HOPKINS UNIVERSITY, priority 2015, dated 2021)
“Also recorded” adds a separate entry of the source. Read-outs that look alike come from different tables or passages of the source.

What was measured:
[1] = in vivo, po, 50 mg/kg
Protocol: (§1) Female C57BL6 mice, 5-6 weeks of age, were purchased from NCl. Animal experimentation was conducted under an approved IACUC protocol and complied with local and national guidelines. All MBZ polymorphs and tablets were administered by oral gavage at a dose of 50 mg/kg. Elacridar was administered by oral gavage at 50 mg/kg 2 hours prior to the administration of MBZ-C. Mice (3 animals/time point) were first anesthetized via intraperitoneal injection of 60 μl of a stock solution containing ketamine hydrochloride (75 mg/kg) (100 mg/ml; Ketamine HCl; Abbot Laboratories, Chicago, Ill., USA) and xylazine (7.5 mg/kg) (100 mg/ml; Xyla-ject®, Phoenix Pharmaceutical, St. Joseph, Mo., USA) in a sterile 0.9% NaCl solution. Then the blood samples were taken by puncturing and aspiring from the left heart ventricle. Blood samples were mixed with 5 mM EDTA and centrifuged at 10000 g for 5 min to obtain the plasma for further analysis.
(§2) Blood, brain and brain tumor tissues were harvested as a function of time after MBZ administration. To compare the pharmacokinetics of MBZ polymorphs, three cohorts of mice each were administered a single dose of 50 mg/kg by oral gavage. For the initial comparison studies, plasma samples were obtained at 1, 2.5, 4, 6, 8, 15, and 24 hours after MBZ administration while brain tissue was only collected at 6 hours. For the comparison studies of polymorph C with or without ELD, plasma and brain tissue samples were obtained at 2.5, 4, and 8 hours after MBZ administration. Brain tumor tissue samples were also obtained for polymorph C alone.
(§3) MBZ and the two metabolites, 2-amino-5-benzoyl-benzimidazole (MBZ-NH2, CAS 52329-60-9) and rac dihydro mebendazole (MBZ-OH, CAS 60254-95-7), were quantified in plasma, brain and brain tumor tissue. Tissue homogenates were prepared at a concentration of 200 mg/ml in plasma prior to extraction. Mebendazole and metabolites were extracted from 50 μl of plasma or tissue homogenates with 0.1 ml of methanol containing 0.5 μg/ml of the internal standard A620223.69. After centrifugation, the supernatant (60 μl) was mixed with water (40 μl) and then transferred into autosampler vials. […] The analytes were monitored using an AB Sciex triple quadrapole™ 5500 mass-spectrometric detector (Applied Biosystems, Foster City, Calif., USA) using electrospray ionization operating in positive mode. The spectrometer was programmed to allow the [MH+] ions of MBZ, MBZ-NH2, MBZ-OH, and A620223.69 at m/z 296.0, 238.0, 298.0, and 287.2, respectively to pass through the first quadrupole (Q1) and into the collision cell (Q2). The daughter ions for MBZ (m/z 263.9), MBZ-NH2 (m/z 105.1), MBZ-OH (m/z 266.0), and A620223.69 (m/z 124.1) were monitored through the third quadrupole (Q3). Calibration curves for MBZ and metabolites were computed using the area ratio peak of the analysis to the internal standard by using a quadratic equation with a 1/x weighting function over the range of 5 to 500 ng/ml (MBZ) and 1 to 500 ng/ml (metabolites) with dilutions of up to 1:100 (v:v). If one or more concentrations were below limits of quantification, a value of ½ the limit of quantification was assigned for pharmacokinetic calculations. If two consecutive time points were below limits of quantification, the last one was excluded from the analysis.
Mean plasma and brain concentrations were calculated at each time point for both MBZ and its metabolites. 1.045 g/ml was used as the average wet rodent brain tissue density (16). Pharmacokinetic parameters were calculated from mean MBZ and its metabolites concentration-time data using noncompartmental methods as analyzed in Phoenix® WinNonlin® version 6.3 (Pharsight Corp., Mountain View, Calif.). Cmax and Tmax were the observed values from the mean concentration data. The AUClast was calculated using the log-linear trapezoidal method. λz was determined from the slope of the terminal phase of the concentration-time profile. The terminal half-life (T1/2) was determined by dividing 0.693 by λz. […]

[2] = in vivo; conditions: for mean B/P ratio: 6 h
Protocol: as §1
For brain distribution studies, mice were perfused under anesthesia with 20 ml ice-cold saline supplemented with 20 μl of 0.02% heparin by injecting slowly into the left heart ventricle using a 20 gauge needle. The right atrium was cut open before to allow the blood outflow. The yellow color of kidney indicated a good perfusion quality that was essential to deplete blood from the brain tissue. In GL261 tumor-bearing mice, GL261 tumor was distinguished from the normal brain by easily recognizable differences in color and shade. GL261 tumor was separated with a scalpel and the normal brain tissue was cut from the contralateral hemisphere. All brain samples were weighed and stored at −80° C. before processing.
as §2
as §3, with “calculations.” for “calculations. If two consecutive time points were below limits of quantification, the last one was excluded from the analysis.”

[3] = system: GL261-luc glioma; conditions: for mean survival: GL261 model, MBZ polymorphs 50 mg/kg oral; for difference in survival (Mantel-Cox test): GL261-luc glioma-bearing mice, 100 mg/kg oral gavage from day 5; for survival of GL261 glioma-bearing mice: other benzimidazoles, even at higher doses than MBZ
Protocol: All animal studies were approved by the Animal Care and Use Committee (ACUC) of the Johns Hopkins University. The intracranial implantation of GL261-luc in the frontal lobe and D425 cells in the cerebellum of the mouse brain followed the procedure described before (3,4). […] MBZ and other benzimidazoles were prepared by either mixing the power with PBS and sesame oil (1:1, v:v) (Sigma) or by grinding the tablets to powder and resuspending in the aforementioned PBS/sesame oil mixture. Elacridar was prepared as a 10 mg/ml suspension in 0.5% hydroxypropylmethylcellulose and 0.5% Tween 80 in PBS similarly as described before (15).
Animal survival data were analyzed by GraphPad Prism 5.0. The p-values were determined by a Mantel-Cox test. A p-value under 0.05 was accepted as statistically significant.

[4] = system: GL261 glioma cells; assay: Cytotoxicity in cultured GL261 cells (colorimetric assay, 72 h); assay type: cell-based, mouse; conditions: for cytotoxicity in GL261 cells: in vitro
Protocol: Cells were incubated with the indicated drugs for 72 h and the living cells were measured by the colorimetric assay.
(3,14) GL261 and D425 cells were maintained in DMEM media supplemented with 10% fetal bovine serum and antibiotics at 37° C. in humidified air containing 5% CO2.

[5] = system: D425 medulloblastoma; assay: Orthotopic D425 medulloblastoma xenograft model (survival); assay type: in vivo, mouse; conditions: D425 model, elacridar alone; marginal
Protocol: The intracranial implantation of GL261-luc in the frontal lobe and D425 cells in the cerebellum of the mouse brain followed the procedure described before (3,4). Five days after tumor implantation, mice were gavaged with MBZ or the other benzimidazoles at 50 mg/kg five days a week. MBZ and other benzimidazoles were prepared by either mixing the power with PBS and sesame oil (1:1, v:v) (Sigma) or by grinding the tablets to powder and resuspending in the aforementioned PBS/sesame oil mixture. Elacridar was prepared as a 10 mg/ml suspension in 0.5% hydroxypropylmethylcellulose and 0.5% Tween 80 in PBS similarly as described before (15).

[6] = female, C57BL6, mouse, po, 50 mg/kg

With `COC(=O)Nc1nc2ccc(C(=O)c3ccccc3)cc2[nH]1` [MBZ-C, Mebendazole] the “plasma AUC0-24 h” value ([1]; female, C57BL6, mouse) was 16,039 h*ng/ml, the Kp ([2]; female, C57BL6, mouse, AUC0-24h B/P ratio) was 0.82 and the “brain Cmax, equivalent concentration” value ([2]; female, C57BL6, mouse, po) was 7.1 µM. For the same molecule, the peak brain concentration [2, 6] was 2,016 ng/g, the Kp at 8 h ([2]; female, C57BL6, mouse, po, 50 mg/kg, brain/plasma (B/P) ratio on average) was 0.75 and the “change of brain concentration of MBZ in terms of AUC0-8h” value ([2]; mouse, po, 50 mg/kg) was “did not significantly change”. For the same molecule, the “time of peak brain concentration after oral administration” value ([2]; mouse, po, 50 mg/kg) was “Four”, the mean survival [3] was 48.5 days and the “efficacy in GL261 glioma model” value ([3]; oral gavage 50 mg/kg, from day 5 after implantation, 50 mg/kg) was “best efficacy”. The “cytotoxicity in GL261 cells” value [4] was “equal cytotoxicity”.
With `COC(=O)Nc1nc2cc(C(=O)c3ccc(F)cc3)ccc2[nH]1` [flubendazole] the “difference in survival (Mantel-Cox test)” value [3] was “not significant” and the “survival of GL261 glioma-bearing mice” value [3] was “failed or only marginally improved the survival”.
In the case of `COC(=O)Nc1nc2ccc(Sc3ccccc3)cc2[nH]1` [fenbendazole], the “difference in survival (Mantel-Cox test)” value [3] is reported as “not significant” and the “survival of GL261 glioma-bearing mice” value [3] is reported as “failed or only marginally improved the survival”.
With `COC(=O)Nc1nc2cc([S+]([O-])c3ccccc3)ccc2[nH]1` (stereo not drawn) [oxifendazole] the “difference in survival (Mantel-Cox test)” value [3] was “not significant” and the “survival of GL261 glioma-bearing mice” value [3] was “failed or only marginally improved the survival”.
In the case of `COC(=O)Nc1nc2ccc(C(O)c3ccccc3)cc2[nH]1` (racemic) [MBZ-OH, rac dihydro mebendazole], the “plasma AUC0-24 h of metabolite” value ([1]; mouse) is reported as 5,781 h*ng/ml.
For `COC(=O)Nc1nc2ccc(C(=O)c3ccccc3)cc2[nH]1` [MBZ-B, Mebendazole], the “plasma AUC0-24 h” value ([1]; female, C57BL6, mouse) was 26,474 h*ng/ml, the “plasma AUC0-24 h relative to MBZ-C” value ([1]; female, C57BL6, mouse) was 165% and the “mean B/P ratio” value [2, 6] was 0.64. For the same molecule, the “toxicity in GL261 glioma-bearing mice” value ([3]; 50 mg/kg oral) was “presumably died from drug toxicity”, the “treatment-related death among 6 treated mice” value ([3]; GL261 glioma-bearing mice, 50 mg/kg oral) was 1 and the mean survival [3] was 45 days. For the same molecule, the “cytotoxicity in GL261 cells” value [4] was “equal cytotoxicity”.
For `COC(=O)Nc1nc2ccc(C(=O)c3ccccc3)cc2[nH]1` [MBZ-A, Mebendazole], the “plasma AUC0-24 h” value ([1]; female, C57BL6, mouse) was 3,052 h*ng/ml, the “plasma AUC0-24 h relative to MBZ-C” value ([1]; female, C57BL6, mouse) was 19% and the “mean B/P ratio” value [2, 6] was 0.32. The “cytotoxicity in GL261 cells” value [4] was “equal cytotoxicity”.
With `c1ccc2[nH]c(-c3cscn3)nc2c1` [thiabendazole, Thiabendazole] the “difference in survival (Mantel-Cox test)” value [3] was “not significant” and the “survival of GL261 glioma-bearing mice” value [3] was “failed or only marginally improved the survival”.
For `COc1cc2c(cc1OC)CN(CCc1ccc(NC(=O)c3cccc4c(=O)c5cccc(OC)c5[nH]c34)cc1)CC2` [elacridar], the survival benefit [5] was 9 days, the median survival ([3]; GL261, single agent 50 mg/kg, control 29.5 days) was 34 days and the IC50 ([4]; GL261 mouse glioma cells) was 5.8 µM.
For `Nc1nc2ccc(C(=O)c3ccccc3)cc2[nH]1` [MBZ-NH2, 2-amino-5-benzoyl-benzimidazole], the “plasma AUC0-24 h of metabolite” value ([1]; female, C57BL6, mouse) was 10,516 h*ng/ml, the “B/P ratio of MBZ-NH2” value ([2]; female, C57BL6, mouse) was 0.12 and the “elevation of B/P ratio by co-administration of elacridar” value ([2]; female, C57BL6, mouse) was 2.5 folds. The “distribution in GL261 brain tumor vs contralateral normal brain tissue” value [2, 6] was “preferentially accumulated in the GL261 brain tumor”, the “elevation of AUC0-8 h by co-administration of elacridar” value ([2]; mouse) was 2.4 folds and the “brain levels of metabolite in terms of Cmax and AUC0-24 h” value ([2]; mouse, po, 50 mg/kg) was “much lower levels than MBZ-OH”. For the same molecule, the “distribution in GL261 brain tumor vs contralateral normal brain tissue” value ([2]; mouse, po, 50 mg/kg) was “significantly higher levels than in the contralateral brain” and the “cytotoxicity in GL261 cells” value [4] was “only a marginal cytotoxicity; also recorded: least cytotoxic”.
For `CCCSc1ccc2nc(NC(=O)OC)[nH]c2c1` [albendazole], the “survival of GL261 glioma-bearing mice” value [3] was “failed or only marginally improved the survival”.
